Laboratory results taken from patent publication US8299070B2, “Indole compounds and pharmaceutical use thereof” (Japan Tobacco Inc., priority 2009, dated 2012).

Molecular target: T1, hITK enzyme (FLAG-tagged full-length hITK) (Homo sapiens, UniProt Q08881)
T1 construct: strongly expressing FLAG-tagged full-length hITK in Sf9 cells; FLAG; made in house; host or cells: Sf9 insect cells (ITK); Escherichia coli (GST-SLP76 substrate)
T1 sequence (Q08881 1-620): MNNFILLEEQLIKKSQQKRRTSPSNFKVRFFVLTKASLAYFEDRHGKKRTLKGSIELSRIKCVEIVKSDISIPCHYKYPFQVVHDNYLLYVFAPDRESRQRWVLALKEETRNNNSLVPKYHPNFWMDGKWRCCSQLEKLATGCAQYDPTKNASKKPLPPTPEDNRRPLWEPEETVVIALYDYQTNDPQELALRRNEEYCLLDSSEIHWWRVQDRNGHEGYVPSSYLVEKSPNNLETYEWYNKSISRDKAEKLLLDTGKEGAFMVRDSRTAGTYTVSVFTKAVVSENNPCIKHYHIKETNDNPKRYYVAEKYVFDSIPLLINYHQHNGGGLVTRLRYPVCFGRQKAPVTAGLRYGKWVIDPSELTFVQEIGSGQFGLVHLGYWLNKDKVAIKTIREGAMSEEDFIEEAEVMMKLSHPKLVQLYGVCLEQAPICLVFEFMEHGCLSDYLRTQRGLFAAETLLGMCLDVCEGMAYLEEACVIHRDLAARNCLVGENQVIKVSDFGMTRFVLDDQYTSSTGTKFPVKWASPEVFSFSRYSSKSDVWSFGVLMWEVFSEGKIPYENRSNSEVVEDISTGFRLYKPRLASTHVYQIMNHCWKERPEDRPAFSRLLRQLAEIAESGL
Assay: ITK inhibitory activity (HTRF kinase assay, biotinylated GST-SLP76 substrate)
Format: biochemical
Details: IC50 calculated from the 2 test compound concentrations sandwiching 50% ITK inhibitory rate
Protocol: (1) Preparation of hITK Enzyme
hITK enzyme was prepared by strongly expressing FLAG-tagged full-length hITK in Sf9 cells, and purifying same by anti-FLAG antibody column.
(2) Preparation of biotinylated GST-SLP76
Biotinylated GST-SLP76 was prepared by strongly expressing GST-tagged SLP76 (aa95-175) in Escherichia coli, purifying same by glutathion sepharose column and biotinylating same.
(3) Preparation of Solution
(i) buffer for dilution: 20 mmol/L 3-(N-morpholino)propanesulfonic acid (pH 7.0) (DOJINDO LABORATORIES), 10 mmol/L magnesium chloride (Sigma-Aldrich Corporation), 1 mmol/L dithiothreitol (Nacalai Tesque, Inc.), 0.1% gelatin (Sigma-Aldrich Corporation)
(ii) substrate solution: 0.2 μg/mL biotinylated GST-SLP76, 100 μmol/L ATP (Sigma-Aldrich Corporation), prepared with buffer for dilution
(iii) test compound solution: test compound, 50% dimethyl sulfoxide (DMSO), prepared with buffer for dilution
(iv) enzyme solution: 50 ng/mL hITK enzyme, prepared with buffer for dilution
(v) control solution: solution after removal of test compound from the mixture of the above-mentioned (i), (ii) and (iii)
(vi) blank solution: solution after removal of ATP from the mixture of the above-mentioned (i), (ii) and (iii)
(vii) detection buffer: 0.1 μg/mL Anti-Phosphotyrosine (PT66)-Cryptate (Cisbio), 2.5 μg/mL streptavidin-binding XL665 (Cisbio), 50 mmol/L 4-(2-hydroxyethyl)-1-piperazineethanesulfonic acid (pH 7.4) (Nacalai Tesque, Inc.), 30 mmol/L EDTA (NipponGene), 0.1% TritonX (Sigma-Aldrich Corporation), 200 mmol/L potassium fluoride (Wako Pure Chemical Industries, Ltd.), 0.05% bovine serum albumin (Sigma-Aldrich Corporation) (4) Measurement of ITK Inhibitory Activity
A substrate solution (25 μL/well), a test compound solution (5 μL/well) and an enzyme solution (20 μL/well) were added into 96 well half-area white plate (plate, Corning Incorporated 3642) to start a kinase reaction. The plate was stood still at room temperature for 10 min. Then, a detection buffer (50 μL/well) was added to the plate. After 2 hr from the addition of the detection buffer, fluorescence intensity at 620 nm (excited at 337 nm), and fluorescence intensity at 665 nm ([…]) were measured by a fluorescence microplate reader.
The Ratio (fluorescence intensity at 665 nm/fluorescence intensity at 620 nm×10000) of each test compound was calculated from the measured fluorescence intensity. Simultaneously, the measurement was performed using a blank solution and a control solution, and % of control value of each test compound was calculated from the following formula. % of control=(Ratio of test compound−Ratio of blank)/(Ratio of control−Ratio of blank)×100 ITK inhibitory rate (%)=100−(% of control)
The IC50 value was calculated from the test compound concentrations at 2 points sandwiching 50% ITK inhibitory rate.
In the test for the compounds of Examples 380 and 381, the ATP concentration of the substrate solutions was 6 μmol/L.

Compound | IC50
CN(CC(=O)N(C)c1ccc2cc(-c3n[nH]c4c3CCC(C)(C)C4)[nH]c2c1)C(=O)CC(C)(C)O [Example 193] | 2 nM
CCC(=O)N(C)c1ccc2cc(-c3n[nH]c4c3CC(OC)C(C)(C)C4)[nH]c2c1 (stereo not drawn) [Example 372] | 11 nM
CN(C(=O)Cn1ccnc1)c1ccc2cc(-c3n[nH]c4c3CCC(C)(C)C4)[nH]c2c1 [Example 89] | < 3 nM
CO[C@H]1CN(CC(=O)N(C)c2ccc3cc(-c4n[nH]c5c4CCC(C)(C)C5)[nH]c3c2)C[C@H]1OC [Example 155] | 9 nM
CN(C(=O)CN1CCC[C@H](O)C1)c1ccc2cc(-c3n[nH]c4c3CCC(C)(C)C4)[nH]c2c1 [Example 109] | 6 nM
CC1OCCN(CC(=O)N(C)c2ccc3cc(-c4n[nH]c5c4CCC(C)(C)C5)[nH]c3c2)C1=O (stereo not drawn) [Example 167] | 1 nM
CN(C(=O)CN1CC(C)(C)OCC1=O)c1ccc2cc(-c3n[nH]c4c3CCC(C)(C)C4)[nH]c2c1 [Example 184] | 1 nM
CCC(=O)Nc1ccc2cc(-c3n[nH]c4c3CCC(C)(C)C4)[nH]c2c1 [Example 28] | 201 nM
CC(C)CN(C)C(=O)c1ccc2cc(-c3n[nH]c4c3CCC(C)(C)C4)[nH]c2c1 [Example 17] | 5 nM
CC(C)OCC(O)C(=O)N(C)c1ccc2cc(-c3n[nH]c4c3CCC(C)(C)C4)[nH]c2c1 (stereo not drawn) [Example 132] | 13 nM
CO[C@H]1CCCN(CC(=O)N(C)c2ccc3cc(-c4n[nH]c5c4CCC(C)(C)C5)[nH]c3c2)C1 [Example 114] | 5 nM
CC(C(=O)N(C)c1ccc2cc(-c3n[nH]c4c3CCC(C)(C)C4)[nH]c2c1)N1CCC(O)CC1 (stereo not drawn) [Example 108] | 15 nM
CC(=O)N(CCO)c1ccc2cc(-c3n[nH]c4c3CCC(C)(C)C4)[nH]c2c1 [Example 214] | < 3 nM
COCCN(C(=O)CN1CCC(C)(C)C1=O)c1ccc2cc(-c3n[nH]c4c3CCC(C)(C)C4)[nH]c2c1 [Example 285] | 2 nM
COCCN(C(=O)C(C)C1CCOCC1)c1ccc2cc(-c3n[nH]c4c3CCC(C)(C)C4)[nH]c2c1 (stereo not drawn) [Example 264] | 10 nM
CC(N)C(=O)N(C)c1ccc2cc(-c3n[nH]c4c3CCC(C)(C)C4)[nH]c2c1 (stereo not drawn) [Example 377] | 6 nM
CN(C(=O)[C@@H](O)C1CCCCC1)c1ccc2cc(-c3n[nH]c4c3CCC(C)(C)C4)[nH]c2c1 [Example 78] | 7 nM
CC(N(C)C(=O)c1ccc2[nH]c(-c3n[nH]c4c3CCC(C)(C)C4)cc2c1)C(C)(C)C (stereo not drawn) [Example 300] | 221 nM
CN(CC(=O)N(C)c1ccc2cc(-c3n[nH]c4c3CCC(C)(C)C4)[nH]c2c1)C(=O)C(C)(C)C [Example 179] | 1 nM
COCCN(C(=O)CN1CCOCC1=O)c1ccc2cc(-c3n[nH]c4c3CCC(C)(C)C4)[nH]c2c1 [Example 286] | 2 nM
CC1(C)CCc2c(-c3cc4ccc(N(CCO)C(=O)CC5CCCOC5)cc4[nH]3)n[nH]c2C1 (stereo not drawn) [Example 232] | 3 nM

Further compounds by falling IC50, results first:

IC50 | Compound
333 nM | CN(C(=O)C1CCOCC1)c1ccc2[nH]c(-c3n[nH]c4c3CCC(C)(C)C4)cc2c1 [Example 341]
246 nM | COc1nnc(NC(=O)c2ccc3[nH]c(-c4n[nH]c5c4CCC(C)(C)C5)cc3c2)s1 [Example 325]
102 nM | CC1(C)CCc2c(-c3cc4cc(C(=O)NCCOc5ccccc5)ccc4[nH]3)n[nH]c2C1 [Example 309]
58 nM | CN(C)C(=O)c1ccc2[nH]c(-c3n[nH]c4c3CCC(C)(C)C4)cc2c1 [Example 296]
51 nM | CNC(=O)c1ccc2[nH]c(-c3n[nH]c4c3CCC(C)(C)C4)cc2c1 [Example 294]
49 nM | CCN1CCN(C(=O)c2ccc3[nH]c(-c4n[nH]c5c4CCC(C)(C)C5)cc3c2)CC1 [Example 337]
37 nM | CC1(C)CCc2c(-c3cc4cc(C(=O)N5CCCC(O)C5)ccc4[nH]3)n[nH]c2C1 (stereo not drawn) [Example 301]
34 nM | CC1(C)CCc2c(-c3cc4ccc(N5CCC(O)C5=O)cc4[nH]3)n[nH]c2C1 (stereo not drawn) [Example 227]
33 nM | CO[C@H]1CN(C(=O)c2ccc3[nH]c(-c4n[nH]c5c4CCC(C)(C)C5)cc3c2)C[C@H]1OC [Example 338]
25 nM | CC1(C)CCc2c(-c3cc4ccc(N5CCC(C)(CO)C5=O)cc4[nH]3)n[nH]c2C1 (stereo not drawn) [Example 230]
24 nM | COC1(C)CCN(c2ccc3cc(-c4n[nH]c5c4CCC(C)(C)C5)[nH]c3c2)C1=O (stereo not drawn) [Example 243]
23 nM | CC1(C)CCc2c(-c3cc4ccc(C(=O)N5CCOCC5)cc4[nH]3)n[nH]c2C1 [Example 19]
13 nM | CC(C)C(C(=O)N(C)c1ccc2cc(-c3n[nH]c4c3CCC(C)(C)C4)[nH]c2c1)N1CCOCC1 (stereo not drawn) [Example 173]
10 nM | CN(C(=O)[C@H]1CCCN1C)c1ccc2cc(-c3n[nH]c4c3CCC(C)(C)C4)[nH]c2c1 [Example 149]
10 nM | CO[C@H]1CC[C@H](C(=O)N(CCO)c2ccc3cc(-c4n[nH]c5c4CCC(C)(C)C5)[nH]c3c2)CC1 [Example 233]
10 nM | CN(C(=O)CCN1CCCCC1=O)c1ccc2cc(-c3n[nH]c4c3CCC(C)(C)C4)[nH]c2c1 [Example 141]
9 nM | CC(C(=O)N(C)c1ccc2cc(-c3n[nH]c4c3CCC(C)(C)C4)[nH]c2c1)N1CCC[C@H](O)C1 (stereo partly drawn) [Example 111]
8 nM | CN(C)CCN(C(=O)C1CCOCC1)c1ccc2cc(-c3n[nH]c4c3CCC(C)(C)C4)[nH]c2c1 [Example 216]
7 nM | CC(=O)N(C)c1ccc2cc(-c3n[nH]c4c3CCC(C)(C)C4)[nH]c2c1 [Example 1, N-[2-(6,6-dimethyl-4,5,6,7-tetrahydro-1H-indazol-3-yl)-1H-indol-6-yl]-N-methylacetamide]
7 nM | CC(C)OC(CO)C(=O)N(C)c1ccc2cc(-c3n[nH]c4c3CCC(C)(C)C4)[nH]c2c1 (stereo not drawn) [Example 159]
6 nM | CC(CO)C(=O)N(C)c1ccc2cc(-c3n[nH]c4c3CCC(C)(C)C4)[nH]c2c1 (stereo not drawn) [Example 61]
5 nM | CN(C(=O)CC1CCC(=O)N1C)c1ccc2cc(-c3n[nH]c4c3CCC(C)(C)C4)[nH]c2c1 (stereo not drawn) [Example 142]
5 nM | CC(C(=O)N(C)c1ccc2cc(-c3n[nH]c4c3CCC(C)(C)C4)[nH]c2c1)N1C[C@@H](C)O[C@@H](C)C1 (stereo partly drawn) [Example 121]
5 nM | CC(O)C(=O)N(C)c1ccc2cc(-c3n[nH]c4c3CCC(C)(C)C4)[nH]c2c1 (stereo not drawn) [Example 34]
4 nM | CCN(c1ccc2cc(-c3n[nH]c4c3CCC(C)(C)C4)[nH]c2c1)C(=O)[C@H]1CC[C@@H](O)CC1 [Example 258]
3 nM | CO[C@@H](C)C(=O)N(C)c1ccc2cc(-c3n[nH]c4c3CCC(C)(C)C4)[nH]c2c1 [Example 169]
3 nM | CC1COCCN1CC(=O)N(C)c1ccc2cc(-c3n[nH]c4c3CCC(C)(C)C4)[nH]c2c1 (stereo not drawn) [Example 145]
2 nM | CC1(C)CCc2c(-c3cc4ccc(N(CCO)C(=O)C5CCOC5)cc4[nH]3)n[nH]c2C1 (stereo not drawn) [Example 238]
1 nM | COCCN(C(=O)CN1CCCCC1=O)c1ccc2cc(-c3n[nH]c4c3CCC(C)(C)C4)[nH]c2c1 [Example 287]
1 nM | CCC(=O)N(C)CC(=O)N(C)c1ccc2cc(-c3n[nH]c4c3CCC(C)(C)C4)[nH]c2c1 [Example 125]
